Values quoted from earlier work in article PMC7449217, “The FDA-Approved Drug Nelfinavir Inhibits Lytic Cell-Free but Not Cell-Associated Nonlytic Transmission of Human Adenovirus” (Antimicrobial Agents and Chemotherapy, 2020).
Like-named read-outs stand apart in the source and are kept apart here.

Columns and labels:
[1] = tested on: HAdV-C2-dE3B-GFP; design: method as in earlier work; settings: A549, 1.25 μM compound, normalized to neg. ctr., cited from earlier work
[2] = tested on: A549 cells; settings: cited from earlier work

| Compound | Normalized mean read-outs: Infected nuclei ([1]; analysis EPFL) | Normalized mean read-outs: Infection index ([1]; analysis EPFL) | Normalized mean read-outs: Nuclei ([1]; analysis EPFL) | Normalized mean read-outs: Plaques ([1]; analysis EPFL) | Normalized mean read-outs: Virus intensity ([1]; analysis EPFL) [AU] | Normalized mean read-outs: Infected nuclei ([1]; analysis UZH) | Normalized mean read-outs: Infection index ([1]; analysis UZH) | Normalized mean read-outs: Nuclei ([1]; analysis UZH) | Normalized mean read-outs: Plaques ([1]; analysis UZH) | Normalized mean read-outs: Virus intensity ([1]; analysis UZH) [AU] | Toxic [2] |
| --- | --- | --- | --- | --- | --- | --- | --- | --- | --- | --- | --- |
| Cc1cc(N)c2ccccc2[n+]1CCCCCCCCCC[n+]1c(C)cc(N)c2ccccc21 [Dequalinium dichloride] | 0.33 | 0.46 | 0.71 | 0.44 | 0.38 | 0.49 | 0.62 | 0.79 | 0.51 | 0.37 | yes |
| Cc1cn([C@H]2C[C@H](F)[C@@H](CO)O2)c(=O)[nH]c1=O [3'-deoxy-3'-fluorothymidine] | 0.12 | 0.17 | 0.70 | 0.00148 | 0.32 | 0.13 | 0.15 | 0.83 | 0.00429 | 0.30 | no |
| CCCCCCCCCCCCCCCC[N+](C)(C)CCN(Cc1ccc(OC)cc1)c1ncccn1 [Thonzonium bromide] | 0.45 | 0.56 | 0.81 | 0.56 | 0.50 | 0.54 | 0.63 | 0.84 | 0.54 | 0.49 | – |
| Nc1c2ccccc2nc2ccccc12 [Aminacrine] | 0.60 | 0.42 | 1.42 | 0.67 | 0.51 | 0.53 | 0.62 | 0.87 | 0.75 | 0.50 | no |
